Holding throughout (format): cell-based, human
Experiment [1] concerns TNF-α in Oral Keratinocytes. Nature of the experiment: TNF-α ELISA in oral keratinocytes. The note with it: for amount of secreted TNF-α by ELISA: LPS (10 μg/ml), FA (10 μg/ml), 24 hours, p<0.05. On the procedure:
(§1) Cell Culture. Normal human oral keratinocytes (NOKSI) and fibroblast (HOF) cells were maintained in Dulbecco […] Eagle's medium (Sigma-Aldrich, St. Louis, MO, USA) supplemented with 10% fetal bovine serum (Atlas Bio-logicals, Fort Collins, CO, USA) and 100 units/mL penicillin and 100 μg/mL streptomycin (LifeTechnologies, Carlsbad, CA, USA). Cells were grown in incubator at 37° C. in a humidified chamber with 5% CO2.
(§2) Drugs treatment in cell culture. The cells were treated alone or with different combination of lipopolysaccharide, cyclosporine, phenytoin, and folic acid. All of them were purchased from Sigma-Aldrich (St. Louis, MO, USA). Each of them were used from 0 μg/ml to 40 μg/ml and the optimum concentration were found 10 μg/ml.
Enzyme linked immunosorbent assay (ELISA). ELISA was conducted with a mouse TNF-α ELISA Kit (PeproTech, USA) and TGF-β Emax ImmunoAssay System (Promega USA) to detect the TNF-α and TGF-β respectively. After normalization of the total cells or tissue protein lysates, 20 μg protein of each sample was used for the detection of TNF-α or TGF-β. ELISA was performed according to the manufacturers' instructions. For TNF-α, 100 ng/100 μl of capture antibody was added to each well of 96 well assay plate and incubated for overnight at room temperature. […] Optical absorbing values were read at 405 and 450 nm and corrected by 650 nm. […] TMB One Solution was added for 15 minutes and the reaction were stopped using 100 μl of 1N hydrochloric acid and the absorbance at 450 nm were recorded on a plate reader. Data were analyzed using excel software. […]
Folic acid reduces TNF-α oral keratinocytes. […] After adhesion, the cells were treated with different concentration of folic acid (2.5 μg/ml-40 μg/ml) and amount of TNF-α was measured by ELISA (p<0.05).
Folic acid reduces TNF-α in Oral Keratinocytes on LPS stimulation. […] The amount of secreted TNF-α was determined by ELISA (p<0.05).
Oral Keratinocytes were seeded and treated with LPS (10 μg/ml), Phe (10 μg/ml), and FA (10 μg/ml) for 24 hours. The amount of secreted TNF-α was determined by ELISA. […]
In general terms: ELISA stands for enzyme-linked immunosorbent assay.

The subject of a further experiment is MyD88. In words: Western blot of MyD88 in oral keratinocytes. The procedure: as §1, §2
Western blot analysis. Cells were seeded in 60 mm plates with a density of 5×10^5 cells per plate and washed briefly with Dulbecco's phosphate-buffered saline (Gibco, Waltham, MA, USA). Whole cell lysates were prepared using RIPA lysis buffer containing protease inhibitor cocktail (Sigma-Aldrich). Total protein concentration was determined using the BCA reagent (Pierce, Waltham, MA, USA). 20 μg of total protein were resolved on sodium dodecyl sulfate-polyacrylamide gel electrophoresis and transferred to polyvinylidenedifluoride membrane and immunoblotted. The blots were incubated for 1 h in 1% bovine serum albumin (BSA) (Sigma-Aldrich) to block the non-specific bindings followed by over-night incubation in primary antibodies (MyD88 and pP65 from Cell Signaling Technology, and human LITAF ThermoFisher Sigma) at 4° C. on shaker. Next day, blots were washed for three times (10 min each) in Tris-buffered saline containing 1% Tween20 (TBST) followed by incubation with secondary antibody (Goat anti-rabbit IgG HRP) with 1:10,000 dilution for 1 h. Following washes, bands were visualized using gel documentation Imaging Systems (BioRad). The band intensities were quantified using software ImageJ (NIH, USA) and relative protein levels were normalized by β-actin (Cell Signaling). To perform the western blot of animal tissue samples, the gingival tissues were collected from both BABLB/c and C57BL/6 mice studies. The soft tissues were separated from the mandibular bone and then crunched. The Bradford assay was performed to measure the protein concentration of each sample. After normalization, 20 μg of whole tissue protein lysate were proceeded for western blot analysis.
A general note: A western blot detects proteins with antibodies after separation by electrophoresis.

A further experiment concerns TLR4. Nature of the experiment: FACS of surface TLR4 on oral keratinocytes. The following applies: LPS (10 μg/ml), Phe (10 μg/ml), different concentration of folic acid, 24 hours. The procedure: Flow cytometry. NOKSI cells were seeded in 100 mm plates with a density of 1×10^6 cells per plate. Cells were treated with drugs, LPS, and folic acid alone or in combination. After NOKSI were detached using Corning Cell Lifter (Corning) and 10 mM EDTA in PBS, the cells were washed with FACS buffer (PBS containing 1% BSA [Sigma] and 2 mM EDTA). Cells were stained by immunofluorescence for CD282 (TLR2) and CD284 (TLR4). Fluorescent labeled antibodies at a dilution of 1:1000 in staining buffer with 2% FBS in PBS were added and incubated for 30 min in dark on ice. Cells were centrifuged and washed thrice in staining buffer and passed through a 70 μm cell strainer before data acquisition. Data analysis was performed using FlowJo (TreeStar, Ashland, OR, USA). All incubations were performed on ice.
Oral Keratinocytes Cells were treated with only LPS (10 μg/ml) for 24 hours. […] Cells were treated with LPS (10 μg/ml) and Phe (10 μg/ml) for 24 hours. […] Cells were treated with LPS (10 μg/ml), Phe (10 μg/ml), and FA ([…]) for 24 hours. […] FIG. 16.

For the compound `Nc1nc2ncc(CNc3ccc(C(=O)N[C@@H](CCC(=O)O)C(=O)O)cc3)nc2c(=O)[nH]1` [folic acid], the figures for the “amount of secreted TNF-α by ELISA” value in experiment [1] (CSA (10 μg/ml)) and in experiment [1] (Phe (10 μg/ml)) were “reduces TNF-α” and “inhibits Phenytoin-induced TNF-α”, respectively. Besides, the “amount of TNF-α by ELISA” value in experiment [1] (folic acid […]-40 μg/ml alone, p<0.05 vs non-treated) is reported as “reduces TNF-α”. In addition, the MyD88 protein level entry in the experiment with MyD88 (LPS, CSA, FA each 10 μg/ml, 24 hours) is recorded as “inhibits CSA-induced expression”. The “amount of MYD88 protein” value in the experiment with MyD88 (LPS, Phe, FA each 10 μg/ml, 24 hours) is reported as “MyD88 expression is reduced”. In addition, the “MyD88 by western blot, dose-dependent effects of FA” value in the experiment on MyD88 (different concentration of folic acid, 24 hrs) is “inhibition of MyD88”. Besides, the “MyD88 by western blot, kinetics of downregulation” value in the experiment with MyD88 (different time points, FA 10 μg/ml) is reported as “inhibition of MyD88”. Besides, the “MyD88 by western blot” value with MyD88 (normal oral keratinocyte cells, FIG. 35) is recorded as “downregulation”. In addition, the “TLR4 receptor on the cell surface” value with TLR4 is on record as “do not alter”.

These data come from patent publication US20260000496A1, “MATERIALS AND METHODS FOR DRUG-INDUCED GINGIVAL OVERGROWTH” (Optimed Technology, Inc., priority 2019, published 2026).
